According to the NIST ThermoML archive (doi:10.1016/j.jct.2017.03.006):
Numbers after ± are expanded uncertainties.

Columns and labels:
[1] = molar heat capacity at constant pressure; details: Liquid, Flow calorimetry
[2] = Liquid; for mass density: Vibrating tube method; for viscosity: Concentric cylinders viscometry

Cc1ccc(C)c(C)c1 [1,2,4-trimethylbenzene]
Details	mass density [kg/m3]	molar heat capacity at constant pressure [J/K/mol]	viscosity [mPa·s]
[1], 293.15 K, 100 kPa	–	216.2 ± 3	–
[1], 293.15 K, 5000 kPa	–	215 ± 3	–
[1], 293.15 K, 10000 kPa	–	213.3 ± 3	–
[1], 293.15 K, 15000 kPa	–	212.5 ± 3	–
[1], 293.15 K, 20000 kPa	–	210.8 ± 3	–
[1], 293.15 K, 25000 kPa	–	209.8 ± 3	–
[1], 313.15 K, 100 kPa	–	222.5 ± 3.1	–
[1], 313.15 K, 5000 kPa	–	221.2 ± 3.1	–
[1], 313.15 K, 10000 kPa	–	219.6 ± 3.1	–
[1], 313.15 K, 15000 kPa	–	218.5 ± 3.1	–
[1], 313.15 K, 20000 kPa	–	217.7 ± 3.1	–
[1], 313.15 K, 25000 kPa	–	217.1 ± 3.1	–
[1], 333.15 K, 100 kPa	–	229.2 ± 3.2	–
[1], 333.15 K, 5000 kPa	–	227.9 ± 3.2	–
[1], 333.15 K, 10000 kPa	–	227.1 ± 3.2	–
[1], 333.15 K, 15000 kPa	–	225.9 ± 3.2	–
[1], 333.15 K, 20000 kPa	–	224.8 ± 3.2	–
[1], 333.15 K, 25000 kPa	–	223.5 ± 3.1	–
[2], 273.15 K, 100 kPa	891.7 ± 0.7	–	–
[2], 273.15 K, 1000 kPa	892.3 ± 0.7	–	–
[2], 273.15 K, 2000 kPa	892.9 ± 0.7	–	–
[2], 273.15 K, 5000 kPa	894.6 ± 0.7	–	–
[2], 273.15 K, 10000 kPa	897.4 ± 0.7	–	–
[2], 273.15 K, 15000 kPa	900.2 ± 0.7	–	–
[2], 273.15 K, 20000 kPa	902.8 ± 0.7	–	–
[2], 273.15 K, 30000 kPa	908 ± 0.7	–	–
[2], 273.15 K, 40000 kPa	912.9 ± 0.7	–	–
[2], 273.15 K, 50000 kPa	917.5 ± 0.7	–	–
[2], 273.15 K, 60000 kPa	921.9 ± 0.7	–	–
[2], 273.15 K, 70000 kPa	926.2 ± 0.7	–	–
[2], 273.15 K, 80000 kPa	930.3 ± 0.8	–	–
[2], 273.15 K, 90000 kPa	934.2 ± 0.8	–	–
[2], 273.15 K, 100000 kPa	938 ± 0.8	–	–
[2], 273.15 K, 110000 kPa	941.7 ± 0.8	–	–
[2], 273.15 K, 120000 kPa	945.2 ± 0.8	–	–
[2], 273.15 K, 130000 kPa	948.6 ± 0.8	–	–
[2], 273.15 K, 140000 kPa	952 ± 0.8	–	–
[2], 283.15 K, 100 kPa	883.3 ± 0.7	–	–
[2], 283.15 K, 1000 kPa	883.9 ± 0.7	–	–
[2], 283.15 K, 2000 kPa	884.5 ± 0.7	–	–
[2], 283.15 K, 5000 kPa	886.3 ± 0.7	–	–
[2], 283.15 K, 10000 kPa	889.3 ± 0.7	–	–
[2], 283.15 K, 15000 kPa	892.2 ± 0.7	–	–
[2], 283.15 K, 20000 kPa	895 ± 0.7	–	–
[2], 283.15 K, 30000 kPa	900.3 ± 0.7	–	–
[2], 283.15 K, 40000 kPa	905.4 ± 0.7	–	–
[2], 283.15 K, 50000 kPa	910.2 ± 0.7	–	–
[2], 283.15 K, 60000 kPa	914.8 ± 0.7	–	–
[2], 283.15 K, 70000 kPa	919.3 ± 0.8	–	–
[2], 283.15 K, 80000 kPa	923.5 ± 0.8	–	–
[2], 283.15 K, 90000 kPa	927.5 ± 0.8	–	–
[2], 283.15 K, 100000 kPa	931.4 ± 0.8	–	–
[2], 283.15 K, 110000 kPa	935.2 ± 0.8	–	–
[2], 283.15 K, 120000 kPa	938.9 ± 0.8	–	–
[2], 283.15 K, 130000 kPa	942.4 ± 0.8	–	–
[2], 283.15 K, 140000 kPa	945.8 ± 0.8	–	–
[2], 293.15 K, 100 kPa	875.1 ± 0.7	–	0.888 ± 0.019
[2], 293.15 K, 1000 kPa	875.7 ± 0.7	–	–
[2], 293.15 K, 2000 kPa	876.3 ± 0.7	–	–
[2], 293.15 K, 5000 kPa	878.2 ± 0.7	–	–
[2], 293.15 K, 10000 kPa	881.4 ± 0.7	–	–
[2], 293.15 K, 15000 kPa	884.4 ± 0.7	–	–
[2], 293.15 K, 20000 kPa	887.3 ± 0.7	–	–
[2], 293.15 K, 30000 kPa	892.9 ± 0.7	–	–
[2], 293.15 K, 40000 kPa	898.2 ± 0.7	–	–
[2], 293.15 K, 50000 kPa	903.2 ± 0.7	–	–
[2], 293.15 K, 60000 kPa	908 ± 0.8	–	–
[2], 293.15 K, 70000 kPa	912.6 ± 0.8	–	–
[2], 293.15 K, 80000 kPa	916.9 ± 0.8	–	–
[2], 293.15 K, 90000 kPa	921.1 ± 0.8	–	–
[2], 293.15 K, 100000 kPa	925.1 ± 0.8	–	–
[2], 293.15 K, 110000 kPa	929 ± 0.8	–	–
[2], 293.15 K, 120000 kPa	932.8 ± 0.8	–	–
[2], 293.15 K, 130000 kPa	936.4 ± 0.8	–	–
[2], 293.15 K, 140000 kPa	939.9 ± 0.8	–	–
[2], 303.15 K, 100 kPa	867 ± 0.7	–	0.779 ± 0.017
[2], 303.15 K, 1000 kPa	867.6 ± 0.7	–	–
[2], 303.15 K, 2000 kPa	868.3 ± 0.7	–	–
[2], 303.15 K, 5000 kPa	870.3 ± 0.7	–	–
[2], 303.15 K, 10000 kPa	873.6 ± 0.7	–	–
[2], 303.15 K, 15000 kPa	876.8 ± 0.7	–	–
[2], 303.15 K, 20000 kPa	879.8 ± 0.7	–	–
[2], 303.15 K, 30000 kPa	885.7 ± 0.7	–	–
[2], 303.15 K, 40000 kPa	891.2 ± 0.7	–	–
[2], 303.15 K, 50000 kPa	896.4 ± 0.7	–	–
[2], 303.15 K, 60000 kPa	901.4 ± 0.8	–	–
[2], 303.15 K, 70000 kPa	906.1 ± 0.8	–	–
[2], 303.15 K, 80000 kPa	910.6 ± 0.8	–	–
[2], 303.15 K, 90000 kPa	914.9 ± 0.8	–	–
[2], 303.15 K, 100000 kPa	919.1 ± 0.8	–	–
[2], 303.15 K, 110000 kPa	923.1 ± 0.8	–	–
[2], 303.15 K, 120000 kPa	927 ± 0.8	–	–
[2], 303.15 K, 130000 kPa	930.7 ± 0.8	–	–
[2], 303.15 K, 140000 kPa	934.3 ± 0.8	–	–
[2], 313.15 K, 100 kPa	859 ± 0.7	–	0.692 ± 0.015
[2], 313.15 K, 1000 kPa	859.7 ± 0.7	–	–
[2], 313.15 K, 2000 kPa	860.4 ± 0.7	–	–
[2], 313.15 K, 5000 kPa	862.6 ± 0.7	–	–
[2], 313.15 K, 10000 kPa	866 ± 0.7	–	–
[2], 313.15 K, 15000 kPa	869.3 ± 0.7	–	–
[2], 313.15 K, 20000 kPa	872.6 ± 0.7	–	–
[2], 313.15 K, 30000 kPa	878.7 ± 0.7	–	–
[2], 313.15 K, 40000 kPa	884.5 ± 0.7	–	–
[2], 313.15 K, 50000 kPa	889.9 ± 0.8	–	–
[2], 313.15 K, 60000 kPa	895 ± 0.8	–	–
[2], 313.15 K, 70000 kPa	899.9 ± 0.8	–	–
[2], 313.15 K, 80000 kPa	904.6 ± 0.8	–	–
[2], 313.15 K, 90000 kPa	909 ± 0.8	–	–
[2], 313.15 K, 100000 kPa	913.3 ± 0.8	–	–
[2], 313.15 K, 110000 kPa	917.4 ± 0.8	–	–
[2], 313.15 K, 120000 kPa	921.4 ± 0.8	–	–
[2], 313.15 K, 130000 kPa	925.2 ± 0.8	–	–
[2], 313.15 K, 140000 kPa	928.9 ± 0.8	–	–
[2], 323.15 K, 100 kPa	851.3 ± 0.7	–	0.62 ± 0.014
[2], 323.15 K, 1000 kPa	852 ± 0.7	–	–
[2], 323.15 K, 2000 kPa	852.7 ± 0.7	–	–
[2], 323.15 K, 5000 kPa	855 ± 0.7	–	–
[2], 323.15 K, 10000 kPa	858.6 ± 0.7	–	–
[2], 323.15 K, 15000 kPa	862.1 ± 0.7	–	–
[2], 323.15 K, 20000 kPa	865.5 ± 0.7	–	–
[2], 323.15 K, 30000 kPa	871.9 ± 0.7	–	–
[2], 323.15 K, 40000 kPa	877.9 ± 0.7	–	–
[2], 323.15 K, 50000 kPa	883.5 ± 0.8	–	–
[2], 323.15 K, 60000 kPa	888.9 ± 0.8	–	–
[2], 323.15 K, 70000 kPa	894 ± 0.8	–	–
[2], 323.15 K, 80000 kPa	898.8 ± 0.8	–	–
[2], 323.15 K, 90000 kPa	903.4 ± 0.8	–	–
[2], 323.15 K, 100000 kPa	907.8 ± 0.8	–	–
[2], 323.15 K, 110000 kPa	912 ± 0.8	–	–
[2], 323.15 K, 120000 kPa	916.1 ± 0.8	–	–
[2], 323.15 K, 130000 kPa	920 ± 0.8	–	–
[2], 323.15 K, 140000 kPa	923.8 ± 0.8	–	–
[2], 333.15 K, 100 kPa	843.6 ± 0.7	–	0.562 ± 0.012
[2], 333.15 K, 1000 kPa	844.4 ± 0.7	–	–
[2], 333.15 K, 2000 kPa	845.2 ± 0.7	–	–
[2], 333.15 K, 5000 kPa	847.6 ± 0.7	–	–
[2], 333.15 K, 10000 kPa	851.4 ± 0.7	–	–
[2], 333.15 K, 15000 kPa	855.1 ± 0.7	–	–
[2], 333.15 K, 20000 kPa	858.6 ± 0.7	–	–
[2], 333.15 K, 30000 kPa	865.3 ± 0.7	–	–
[2], 333.15 K, 40000 kPa	871.6 ± 0.8	–	–
[2], 333.15 K, 50000 kPa	877.4 ± 0.8	–	–
[2], 333.15 K, 60000 kPa	883 ± 0.8	–	–
[2], 333.15 K, 70000 kPa	888.2 ± 0.8	–	–
[2], 333.15 K, 80000 kPa	893.2 ± 0.8	–	–
[2], 333.15 K, 90000 kPa	898 ± 0.8	–	–
[2], 333.15 K, 100000 kPa	902.5 ± 0.8	–	–
[2], 333.15 K, 110000 kPa	906.9 ± 0.8	–	–
[2], 333.15 K, 120000 kPa	911.1 ± 0.8	–	–
[2], 333.15 K, 130000 kPa	915.1 ± 0.8	–	–
[2], 333.15 K, 140000 kPa	919 ± 0.8	–	–
